Measurements from the NIST ThermoML archive (doi:10.1016/j.jct.2010.11.017).
± gives the expanded uncertainty stated by the source.

Assay: mn = molality of the nth substance listed, in mol/kg
Details: 101 kPa, Liquid; for viscosity: Capillary tube (Ostwald / Ubbelohde) method; for speed of sound: Frequency=3 MHz, Linear variable-path acoustic interferometer; for mass density: Pycnometric method

N[C@@H](Cc1c[nH]cn1)C(=O)O [L-histidine] + O
Details	mass density [kg/m3]	speed of sound [m/s]	viscosity [mPa·s]
293.15 K, m1 = 0.0199	999.39 ± 6	1488.1 ± 10	1.014 ± 0.1
293.15 K, m1 = 0.0399	1000.54 ± 6	1491.8 ± 10	1.024 ± 0.1
293.15 K, m1 = 0.0599	1001.69 ± 6	1494.5 ± 10	1.035 ± 0.1
293.15 K, m1 = 0.0799	1002.84 ± 6	1496.5 ± 10	1.045 ± 0.1
293.15 K, m1 = 0.1	1003.99 ± 6	1497.4 ± 10	1.056 ± 0.11
293.15 K, m1 = 0.1199	1005.14 ± 6	1497.5 ± 10	1.066 ± 0.11
293.15 K, m1 = 0.14	1006.29 ± 6	1496.5 ± 10	1.077 ± 0.11
293.15 K, m1 = 0.16	1007.44 ± 6	1494.8 ± 10	1.087 ± 0.11
298.15 K, m1 = 0.0199	998.22 ± 6	1501.1 ± 10	0.9001 ± 0.09
298.15 K, m1 = 0.0399	999.37 ± 6	1504.4 ± 10	0.9083 ± 0.091
298.15 K, m1 = 0.0599	1000.52 ± 6	1506.8 ± 10	0.9164 ± 0.092
298.15 K, m1 = 0.0799	1001.68 ± 6	1508.1 ± 10	0.925 ± 0.093
298.15 K, m1 = 0.1	1002.83 ± 6	1508.6 ± 10	0.933 ± 0.094
298.15 K, m1 = 0.1199	1003.98 ± 6	1507.9 ± 10	0.9411 ± 0.094
298.15 K, m1 = 0.14	1005.13 ± 6	1506.5 ± 10	0.95 ± 0.095
298.15 K, m1 = 0.16	1006.28 ± 6	1504.2 ± 10	0.9583 ± 0.096
303.15 K, m1 = 0.0199	996.83 ± 6	1512.3 ± 10	0.8052 ± 0.081
303.15 K, m1 = 0.0399	997.99 ± 6	1515.1 ± 10	0.8119 ± 0.081
303.15 K, m1 = 0.0599	999.14 ± 6	1517 ± 10	0.8187 ± 0.082
303.15 K, m1 = 0.0799	1000.3 ± 6	1517.7 ± 10	0.8256 ± 0.083
303.15 K, m1 = 0.1	1001.46 ± 6	1518 ± 10	0.8318 ± 0.083
303.15 K, m1 = 0.1199	1002.61 ± 6	1516.4 ± 10	0.8383 ± 0.084
303.15 K, m1 = 0.14	1003.76 ± 6	1514.2 ± 10	0.8451 ± 0.085
303.15 K, m1 = 0.16	1004.91 ± 6	1511.5 ± 10	0.8513 ± 0.085
308.15 K, m1 = 0.0199	995.23 ± 6	1523.3 ± 10	0.7255 ± 0.073
308.15 K, m1 = 0.0399	996.39 ± 6	1525.7 ± 10	0.7309 ± 0.073
308.15 K, m1 = 0.0599	997.55 ± 6	1527.1 ± 10	0.7362 ± 0.074
308.15 K, m1 = 0.0799	998.71 ± 6	1527.6 ± 10	0.7415 ± 0.074
308.15 K, m1 = 0.1	999.87 ± 6	1527.2 ± 10	0.7464 ± 0.075
308.15 K, m1 = 0.1199	1001.02 ± 6	1525.5 ± 10	0.7515 ± 0.075
308.15 K, m1 = 0.14	1002.19 ± 6	1522.8 ± 10	0.7568 ± 0.076
308.15 K, m1 = 0.16	1003.34 ± 6	1519.8 ± 10	0.762 ± 0.076
313.15 K, m1 = 0.0199	993.41 ± 6	1529.9 ± 10	0.6581 ± 0.066
313.15 K, m1 = 0.0399	994.58 ± 6	1531.9 ± 10	0.6623 ± 0.066
313.15 K, m1 = 0.0599	995.74 ± 6	1532.8 ± 10	0.6665 ± 0.067
313.15 K, m1 = 0.0799	996.91 ± 6	1533 ± 10	0.6705 ± 0.067
313.15 K, m1 = 0.1	998.08 ± 6	1532.2 ± 10	0.6745 ± 0.068
313.15 K, m1 = 0.1199	999.23 ± 6	1530.3 ± 10	0.6788 ± 0.068
313.15 K, m1 = 0.14	1000.4 ± 6	1527.3 ± 10	0.683 ± 0.068
313.15 K, m1 = 0.16	1001.56 ± 6	1523.7 ± 10	0.6869 ± 0.069
318.15 K, m1 = 0.0199	991.41 ± 6	1535.7 ± 10	0.6018 ± 0.06
318.15 K, m1 = 0.0399	992.58 ± 6	1537.3 ± 10	0.605 ± 0.061
318.15 K, m1 = 0.0599	993.75 ± 6	1538 ± 10	0.6082 ± 0.061
318.15 K, m1 = 0.0799	994.92 ± 6	1537.6 ± 10	0.6114 ± 0.061
318.15 K, m1 = 0.1	996.1 ± 6	1536.3 ± 10	0.6148 ± 0.062
318.15 K, m1 = 0.1199	997.26 ± 6	1534.1 ± 10	0.6175 ± 0.062
318.15 K, m1 = 0.14	998.44 ± 6	1530.5 ± 10	0.6208 ± 0.062
318.15 K, m1 = 0.16	999.6 ± 6	1526.5 ± 10	0.6238 ± 0.062
